# Like-named read-outs stand apart in the source and are kept apart here.
# Molecular target: recombinant CpLDH protein (Cryptosporidium parvum, UniProt Q9GT92, F198L/K295E/R251K)
Structure (SMILES),MEAN CpLDH INHIBITION (%),"MEAN CpLDH INHIBITION (%) (20 μM compound, 10 mM pyruvate, 1 mM NADH, values below 0 = augmenters)"
CCCNC1=C(C)C(=O)C2=C(C1=O)[C@H](COC(N)=O)[C@]1(OC)[C@@H]3N[C@@H]3CN21 [NSC123115],-0.99%,
CN(C)c1ccc2c(SCC(=O)OCC(=O)[C@@]3(O)CC[C@H]4[C@@H]5CCC6=CC(=O)C=C[C@]6(C)[C@H]5C(=O)C[C@@]43C)c3ccc(N(C)C)cc3nc2c1 [NSC337851],-16.37%,
Cc1c(Cl)cccc1NC(=O)CC1Sc2ccccc2NC1=O (centres unmarked) [NSC634396],-17.78%,
CCNC(=O)OCc1c(COC(=O)NCC)c(-c2ccc(Cl)c(Cl)c2)n2c1CCC2 [NSC267700],-49.53%,
COC(=O)c1[nH]c(=S)[nH]c(=O)c1-c1ccc(Cl)cc1 [NSC635140],-15.60%,
CCOC(=O)Cc1cc(=O)oc2cc(O)ccc12 [NSC667235],-25.51%,
O=C(Nc1ccccc1-c1nn(C(=S)Nc2ccccc2)c(=S)n(C(=S)Nc2ccccc2)c1=O)C(F)(F)F [NSC623093],-49.57%,
Oc1cccc2cccnc12 [NSC285166],,-48.97%
N[C@H](C(=O)O)[C@H]1ON=C(Cl)[C@H]1O [NSC176324],-9.23%,
CN(C)CCNC(=O)c1cccc2[nH]c(-c3ccncc3)nc12.Cl [NSC678932],-5.91%,
CO[C@H]1Nc2c(ccc(C)c2O)C(=O)N2C=C(/C=C/C(N)=O)C[C@@H]12 [NSC106408],-29.99%,
BrC(/C=N/Nc1nnc(-c2ccccc2)c(-c2ccccc2)n1)C(Br)c1ccccc1 (centres unmarked) [NSC640638],-14.60%,
COc1nc(N)nc2nc[nH]c12 [NSC37364],-36.91%,
CC1=C[C@H]2O[C@@H]3[C@H](O)[C@@H](O)[C@](C)([C@@]2(CO)CC1)[C@]31CO1 [NSC269142],-41.10%,
CC(C)[C@@H](C)/C=C/[C@@H](C)[C@H]1CC[C@H]2C3=CC=C4C[C@@H](O)CC[C@]4(C)[C@H]3CC[C@]12C [NSC62791],-22.35%,
N=N/C(=C\c1c(O)[nH]c2ccccc12)c1ccccc1 [NSC175274],-25.99%,

Structure (SMILES),MEAN CpLDH INHIBITION (%),"MEAN CpLDH INHIBITION (%) (20 μM compound, 10 mM pyruvate, 1 mM NADH, values below 0 = augmenters)"
O=C1N[C@@H]2C(=C[C@H](O)[C@@H](O)[C@H]2O)c2cc3c(c(O)c21)OCO3 [NSC266535],-18.25%,
CCN(CC)C(=S)[S-].[Na+] [NSC4857],-37.64%,
NC(=O)C#CC(N)=O [NSC65381],0%,
COc1c(O[C@@H]2O[C@H](CO)[C@@H](O)[C@H](O)[C@H]2O)cc2c(c1OC)-c1ccc(OC)c(=O)cc1[C@@H](NC(C)=O)CC2 [NSC32992],-5.35%,
O=C(O)c1cc(CCc2cc(O)ccc2O)ccc1O [NSC655255],-35.82%,
Cc1cc2cc3cc(C)c(N)cc3nc2cc1N.Cl [NSC13973],-3.43%,
CC(C)c1oc(=O)cc2c1[C@@H](O)[C@H]1OC(=O)[C@@]3(C)[C@@H](O)[C@H]4O[C@H]4[C@@]2(C)[C@@H]13 [NSC211500],-13.24%,
CC1=NC(C(C)C)C(=O)O1 (centres unmarked) [NSC635968],-7.14%,
CC(=O)OCc1c2ccccc2c(C)c2c1cc(F)c1ccccc12 [NSC623135],-28.47%,
CC(C)(C)[Si](C)(C)OCC1CCC(n2cnc3c(N)ncnc32)O1 (centres unmarked) [NSC616355],-24.91%,
Cn1cnc([N+](=O)[O-])c1Sc1nnnn1-c1ccccc1 [NSC631152],-45.89%,
Cc1ccccc1NC(=O)C(=O)C(C(=O)c1ccccc1F)C1OC(=O)c2ccccc21 (centres unmarked) [NSC641228],-51.30%,
Nc1ncnc2c([C@@H]3O[C@H](CO)[C@@H](O)[C@H]3O)c[nH]c12 [NSC352890],-27.24%,
NC(=O)NO [NSC32065],-2.35%,
NS(=O)(=O)c1nc2nc[nH]c(=O)c2[nH]1 [NSC635448],-5.65%,
[Cl][Hg][c]1ccc2ccccc2c1 [NSC174163],-16.59%,
